In PubChem BioAssay AID1963436 (Molecular Pharmacology Branch, DTP, NCI, 2024):

Tested on: OVCAR-5 complex spheroid (HUVEC/MSC), viability % T/C
Test: Anticancer human tumor OVCAR-5 cell line growth inhibition [Asc];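 note: spheroids exposed to agents for 7 days before readout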;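 for viability, T/C: 100% = DMSO vehicle-treated wells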
Settings: for IC50: curve of first compound; for viability, T/C: stronger effect = lower value
In short: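 Complex solid-tumor spheroids incorporating human endothelial and mesenchymal stem cells received single agents or combinations over half-log dilution ranges anchored to clinical Cmax.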

[1] = second compound 0.03 µM, first compound 0.0316 µM
[2] = second compound 0.03 µM, first compound 0.1 µM
[3] = second compound 0.03 µM, first compound 0.316 µM
[4] = second compound 0.03 µM, first compound 1 µM
[5] = second compound 0.0949 µM, first compound 0.0316 µM
[6] = second compound 0.0949 µM, first compound 0.1 µM
[7] = second compound 0.0949 µM, first compound 0.316 µM
[8] = second compound 0.0949 µM, first compound 1 µM
[9] = second compound 0.3 µM, first compound 0.0316 µM
[10] = second compound 0.3 µM, first compound 0.1 µM
[11] = second compound 0.3 µM, first compound 0.316 µM
[12] = second compound 0.3 µM, first compound 1 µM
[13] = second compound 0.949 µM, first compound 0.0316 µM
[14] = second compound 0.949 µM, first compound 0.1 µM
[15] = second compound 0.949 µM, first compound 0.316 µM
[16] = second compound 0.949 µM, first compound 1 µM
[17] = second compound 3 µM, first compound 0.0316 µM
[18] = second compound 3 µM, first compound 0.1 µM
[19] = second compound 3 µM, first compound 0.316 µM
[20] = second compound 3 µM, first compound 1 µM

SMILES	IC50 (second compound 0.03 µM)	IC50 (second compound 0.0949 µM)	IC50 (second compound 0.3 µM)	IC50 (second compound 0.949 µM)	IC50 (second compound 3 µM)	viability, T/C [1]	viability, T/C [2]	viability, T/C [3]	viability, T/C [4]	viability, T/C [5]	viability, T/C [6]	viability, T/C [7]	viability, T/C [8]	viability, T/C [9]	viability, T/C [10]	viability, T/C [11]	viability, T/C [12]	viability, T/C [13]	viability, T/C [14]	viability, T/C [15]	also measured
C#Cc1c(F)ccc2cc(O)cc(-c3ncc4c(N5CC6CCC(C5)N6)nc(OCC56CCCN5CC(F)C6)nc4c3F)c12 (stereo not given) + CCN1C(C(=O)NC23CCC(C(=O)O)(CC2)CC3)C(c2cccc(Cl)c2F)C2(C(=O)Nc3cc(Cl)ccc32)C12CCCCC2	6.75 µM	6.76 µM	6.72 µM	6.51 µM	5.41 µM	108%	108%	83.3%	78%	106%	105%	91.1%	88.8%	101%	107%	106%	74.8%	99%	109%	102%	viability, T/C (second compound 0.03 µM, first compound 3.16 µM): 73%; viability, T/C (second compound 0.03 µM, first compound 10 µM): 39.1%; viability, T/C (second compound 0.0949 µM, first compound 3.16 µM): 66.5%; viability, T/C (second compound 0.0949 µM, first compound 10 µM): 40.8%; viability, T/C (second compound 0.3 µM, first compound 3.16 µM): 66.2%; viability, T/C (second compound 0.3 µM, first compound 10 µM): 42.4%; viability, T/C [16]: 84.4%; viability, T/C (second compound 0.949 µM, first compound 3.16 µM): 65.5%; viability, T/C (second compound 0.949 µM, first compound 10 µM): 41.3%; viability, T/C [17]: 104%; viability, T/C [18]: 107%; viability, T/C [19]: 107%; viability, T/C [20]: 79.5%; viability, T/C (second compound 3 µM, first compound 3.16 µM): 61.2%; viability, T/C (second compound 3 µM, first compound 10 µM): 39.6%
CNC(C)C(=O)NC1CN(S(=O)(=O)c2cccc(S(=O)(=O)N3CCC4CCC(C(=O)NC(c5ccccc5)c5ccccc5)N4C(=O)C(NC(=O)C(C)NC)C3)c2)CCC2CCC(C(=O)NC(c3ccccc3)c3ccccc3)N2C1=O (stereo not given) + CCN1C(C(=O)NC23CCC(C(=O)O)(CC2)CC3)C(c2cccc(Cl)c2F)C2(C(=O)Nc3cc(Cl)ccc32)C12CCCCC2	> 1 µM	> 1 µM	> 1 µM	> 1 µM	> 1 µM	86.2%	84.7%	94.4%	75%	80.7%	77.1%	78.8%	78.3%	84.5%	74.7%	87.3%	95.3%	87.5%	70.2%	85.1%	viability, T/C (second compound 0.03 µM, first compound 0.00316 µM): 97.3%; viability, T/C (second compound 0.03 µM, first compound 0.01 µM): 107%; viability, T/C (second compound 0.0949 µM, first compound 0.00316 µM): 90.5%; viability, T/C (second compound 0.0949 µM, first compound 0.01 µM): 102%; viability, T/C (second compound 0.3 µM, first compound 0.00316 µM): 102%; viability, T/C (second compound 0.3 µM, first compound 0.01 µM): 94%; viability, T/C (second compound 0.949 µM, first compound 0.00316 µM): 109%; viability, T/C (second compound 0.949 µM, first compound 0.01 µM): 102%; viability, T/C [16]: 95%; viability, T/C (second compound 3 µM, first compound 0.00316 µM): 102%; viability, T/C (second compound 3 µM, first compound 0.01 µM): 101%; viability, T/C [17]: 96.7%; viability, T/C [18]: 79.9%; viability, T/C [19]: 84.4%; viability, T/C [20]: 90.8%
